# Experimental data: patent publication US20250186408A1, “TREATMENT OF PHARMACORESISTANT EPILEPSY” (Katholieke Universiteit Leuven, priority 2021, published 2025)
# Key:
# Assay type in all cases: cell-based
# AR [1] = target: T1, AR (Homo sapiens, UniProt P10275); assay: NHR Nuclear Translocation AR Antagonist
# T1 construct: enzyme fragment for PathHunter enzyme fragment complementation (EFC)
# T1 sequence (P10275 1-920): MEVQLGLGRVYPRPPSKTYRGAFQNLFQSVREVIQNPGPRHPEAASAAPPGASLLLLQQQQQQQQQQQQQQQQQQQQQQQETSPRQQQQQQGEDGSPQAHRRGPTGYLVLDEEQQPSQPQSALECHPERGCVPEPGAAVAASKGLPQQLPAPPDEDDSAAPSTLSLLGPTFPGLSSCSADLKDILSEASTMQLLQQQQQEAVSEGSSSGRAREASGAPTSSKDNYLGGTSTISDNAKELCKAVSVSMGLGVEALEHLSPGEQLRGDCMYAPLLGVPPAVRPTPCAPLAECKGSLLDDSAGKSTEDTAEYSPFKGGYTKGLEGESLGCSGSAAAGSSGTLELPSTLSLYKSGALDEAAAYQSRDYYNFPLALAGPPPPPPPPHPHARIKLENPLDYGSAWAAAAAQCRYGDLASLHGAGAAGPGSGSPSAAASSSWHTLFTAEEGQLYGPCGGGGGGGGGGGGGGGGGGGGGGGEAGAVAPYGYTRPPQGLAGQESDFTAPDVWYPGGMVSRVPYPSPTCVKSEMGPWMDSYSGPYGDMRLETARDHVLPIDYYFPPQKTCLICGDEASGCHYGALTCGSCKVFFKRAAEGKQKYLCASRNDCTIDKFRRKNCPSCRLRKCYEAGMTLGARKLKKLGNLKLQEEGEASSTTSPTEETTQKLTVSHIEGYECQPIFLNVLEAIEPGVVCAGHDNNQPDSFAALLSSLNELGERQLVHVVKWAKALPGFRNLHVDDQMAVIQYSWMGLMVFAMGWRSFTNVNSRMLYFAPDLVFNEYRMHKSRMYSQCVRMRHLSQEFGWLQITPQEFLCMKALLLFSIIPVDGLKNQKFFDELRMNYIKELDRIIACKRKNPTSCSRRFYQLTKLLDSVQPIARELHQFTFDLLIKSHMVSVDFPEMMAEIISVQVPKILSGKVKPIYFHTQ
# Procedure: (§1) In vitro pharmacological profiling of compounds was done against 78 functional assays for 47 common off-targets (30) by Eurofins DiscoverX Corporation (Fremont, CA, USA) using their SAFETYscan E/IC50 ELECT service (Cat Ref 87-1003DR, Safety47 Panel Dose Response). The following assays were performed: (1) GPCR cAMP modulation, (2) calcium mobilization, (3) nuclear hormone receptor assays, (4) KINOMEscan binding assays, (5) ion channel assays, (6) transporter assays and (7) enzymatic assays. Compounds were tested in a range of 10 concentrations, following a 3-fold serial dilution, starting from 10 μM. The assays were performed utilizing the PathHunter enzyme fragment complementation (EFC) technology, FLIPR®-based cellular screening assays, and KINOMEscan kinase binding assays.
# (§2) Prior to testing, PathHunter NHR cell lines were expanded from freezer stocks and cells were seeded in a total volume of 20 μL into white walled 384-well microplates and incubated at 37° C. […] Microplates were read following signal generation with a PerkinElmer Envision™ instrument for chemiluminescent signal detection. Compound activity was analysed using CBIS data analysis suite (ChemInnovation, CA). For agonist mode assays, percentage activity was calculated using the following equation:
# AR [2] = target: T1, AR; assay: NHR Nuclear Translocation AR Agonist
# Procedure: as §1, §2
# GR [3] = target: T2, GR (Homo sapiens, UniProt P04150); assay: NHR Protein Interaction GR Antagonist
# T2 construct: enzyme fragment for PathHunter enzyme fragment complementation (EFC)
# T2 sequence (P04150 1-777): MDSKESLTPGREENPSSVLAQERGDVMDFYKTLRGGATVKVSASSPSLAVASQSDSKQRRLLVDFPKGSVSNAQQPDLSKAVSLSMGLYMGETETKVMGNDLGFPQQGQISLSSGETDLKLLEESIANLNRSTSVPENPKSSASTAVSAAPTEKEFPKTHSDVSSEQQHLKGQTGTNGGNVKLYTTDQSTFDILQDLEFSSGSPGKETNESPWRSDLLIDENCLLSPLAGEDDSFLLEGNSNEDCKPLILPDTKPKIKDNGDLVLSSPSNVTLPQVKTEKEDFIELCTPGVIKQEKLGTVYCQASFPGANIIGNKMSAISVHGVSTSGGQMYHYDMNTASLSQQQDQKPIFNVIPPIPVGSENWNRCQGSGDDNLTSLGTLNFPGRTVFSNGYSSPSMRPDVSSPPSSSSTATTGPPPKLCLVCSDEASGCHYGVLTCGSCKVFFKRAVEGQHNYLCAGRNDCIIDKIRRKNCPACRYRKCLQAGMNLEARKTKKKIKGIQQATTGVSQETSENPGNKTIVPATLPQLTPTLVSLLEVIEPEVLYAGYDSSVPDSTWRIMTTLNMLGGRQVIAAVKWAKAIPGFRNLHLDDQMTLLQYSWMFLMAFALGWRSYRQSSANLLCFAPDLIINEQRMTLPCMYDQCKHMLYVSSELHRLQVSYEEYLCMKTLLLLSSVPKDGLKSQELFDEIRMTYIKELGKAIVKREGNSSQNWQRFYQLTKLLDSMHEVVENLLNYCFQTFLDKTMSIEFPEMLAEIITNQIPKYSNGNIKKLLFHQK
# Procedure: as §1, §2
# GR [4] = target: T2, GR; assay: NHR Protein Interaction GR Agonist
# Procedure: as §1, §2
compound,measurement,setting,value
"Clc1cccc(C#Cc2n[nH]c3ncccc23)c1 [Compound 10.1, 3-((3-chlorophenyl)ethynyl)-1H-pyrazolo[3,4-b]pyridine]",IC50,AR [1],> 10 µM
same,Emax,"AR [1]; NHR Nuclear Translocation AR Antagonist, read-out: Max response",4.6%
same,EC50,AR [2],> 10 µM
same,Emax,"AR [2]; NHR Nuclear Translocation AR Agonist, read-out: Max response",0%
same,Emax,GR [3]; read-out: Max response,2.6%
same,IC50,"GR [3]; read-out: RC50, result type IC50",> 10 µM
same,Emax,GR [4]; read-out: Max response,0%
same,EC50,"GR [4]; read-out: RC50, result type EC50",> 10 µM
